Like-named read-outs stand apart in the source and are kept apart here.
Assays:
[1] = rat, in vivo, iv, 10 mg/kg
in vitro = in vitro ADME; details: rabbit, cerebrospinal or other body fluid, pH 7
Experimental: This conversion kinetics test was carried out by incubating, at 37° C., 25 μl of a sample of the solution described above, with gentle stirring, with 8 μl of fresh rabbit tear. 2 μl samples were taken at intervals of 1, 2, 3 and 30 minutes, and were then analyzed by HPLC.

cornea = assay: Confocal laser scanning opthalmoscope test (subacute ocular toxicity); details: rabbit cornea, 25 μl three times a day for four days; (XV) aqueous solution, Cyclosporin A 1% in olive oil
Experimental: The solutions were sterilized by passing them through 0.22 μm nitrocellulose filters.
This test was carried out on the same type of animal as previously. 25 μl of a solution as described above were instilled onto the cornea of the right eye three times a day for four days, and then once on the fourth day just before observation. After the final installation, the rabbits were sedated by administering ketamine hydrochloride and xylazine. A total of 25 μl of a solution of sodium fluorescein at 0.5% by weight/volume were instilled onto the eye in order to allow selective labeling of the surfaces possibly damaged. The eye was then rinsed for one minute with a saline solution at 37° C.
The opthalmoscope was coupled to an image analysis system in order to be able to reconstitute an image in three dimensions and to allow evaluation of the damaged areas.

[2] = assay type: in vitro ADME; details: bovine, serum
esterases = assay: Enzymatic stability: hydrolysis in Hepes buffer in the presence of esterases; details: 50 mM Hepes buffer, pH 7.4, 37° C., FIG. 1
Experimental: During the incubation at 37° C., 40 μl aliquots are sampled at appropriate time periods and analyzed by HPLC and ESI-MS.

[3] = Water-solubility by visual examination in 67 mM Sorensen phosphate buffers; assay type: physicochemical; details: 67 mM Sorensen phosphate buffer, ambient temperature
[4] = T1/22 (terminal half-life time)

Row | Compound | AUC(0-inf) [1] [ng·h/mL] | MRT [1] [h] | clearance [1] [mL/min/kg] | half-life ([1]; T1/21 (initial half-life time)) [h] | half-life [1, 4] [h] | metabolised at 0.05 h, 0.76 % (weight/volume) Cyclosporin A equivalent (in vitro) [%] | CLSO, % lesions (corneal lesions) (cornea) [%] | half-life [2] [h] | hydrolysis in the presence of esterases (release of Cyclosporin A) (esterases) | solubility ([3]; pH 5) [mM] | solubility ([3]; pH 6, read-out: Water-solubility at pH = 6) [mM] | solubility ([3]; pH 7) [mM] | solubility ([3]; pH 8, read-out: Water-solubility at pH = 8) [mM]
1 | C/C=C/C[C@@H](C)[C@@H](OC(=O)CN(C)C(=O)[C@H](CCCC[N+](C)(C)C)NC(=O)OC(C)OC(C)=O)[C@H]1C(=O)N[C@@H](CC)C(=O)N(C)CC(=O)N(C)[C@@H](CC(C)C)C(=O)N[C@@H](C(C)C)C(=O)N(C)[C@@H](CC(C)C)C(=O)N[C@@H](C)C(=O)N[C@H](C)C(=O)N(C)[C@@H](CC(C)C)C(=O)N(C)[C@@H](CC(C)C)C(=O)N(C)[C@@H](C(C)C)C(=O)N1C (stereo partly shown) [(XV), MeBmt(O-Sar-Lys(Nε^+Me3)-COOCH(CH3)OCOCH3))^1-CsA.I^−] | 66600 | 15.3 | 2.5 | 0.55 | 11.8 | 3 | 7 | 3.66 |  |  |  |  | 
2 | C/C=C/C[C@@H](C)[C@@H](OC(=O)CN(C)C(=O)[C@H](COP(=O)(O)O)NC(=O)OC(C)OC(C)=O)[C@H]1C(=O)N[C@@H](CC)C(=O)N(C)CC(=O)N(C)[C@@H](CC(C)C)C(=O)N[C@@H](C(C)C)C(=O)N(C)[C@@H](CC(C)C)C(=O)N[C@@H](C)C(=O)N[C@H](C)C(=O)N(C)[C@@H](CC(C)C)C(=O)N(C)[C@@H](CC(C)C)C(=O)N(C)[C@@H](C(C)C)C(=O)N1C (stereo partly shown) [(XVI), MeBmt(O-Sar-Ser(OPO(OH)2)—COOCH(CH3)OCOCH3)^1-CsA] | 44700 | 14.9 | 3.67 | 0.2 | 11.8 |  |  | 3.5 | rapidly degrades to release the Cyclosporin A | > 20 | > 20 | > 20 | > 20

Source: patent US6995139B2, “Cyclic undecapeptide pro-drugs and uses thereof” (Debiopharm S.A., priority 2001, dated 2006)
